Laboratory results reported in patent US20250325610A1, “Compositions Containing Cannabis and Hericium Extracts for the Improvement of Mental Health and Treatment of CNS Disorders” (DrinkBrez, LLC, priority 2024, published 2025).

System: theta power
Assay: EEG study on theta power modulation by THC and Lion's Mane extract (randomized, double-blind, crossover)
Assay type: in vivo, human
Conditions: for global theta power change: 16-node EEG, normalized theta power
Protocol: Participants: 10 healthy adults (18-45 years) in a randomized, double-blind, crossover trial.
Treatments: Baseline (placebo), Lion's Mane (2.2 g), THC (5 mg), THC+Lion's Mane.
Administration: Nanoemulsion beverages for rapid absorption.
EEG recordings: 16-node headset measured theta power at 0 min (baseline), 15 min, and 30 min.
Normalized theta power analyzed via mixed-effects ANOVA.
Topographic mapping for spatial changes.

CCCCCc1cc(O)c2c(c1)OC(C)(C)[C@@H]1CCC(C)=C[C@@H]21 [THC, Δ9-tetrahydrocannabinol]
global theta power change (15 min after nanoemulsion beverage): −8.9% | theta power change, frontal nodes F3, F7 and FC5 (15 minutes): −14.6% | global theta power change (30 min after nanoemulsion beverage): 19.4% | theta power change, frontal nodes (30 minutes): 33.2% | theta power change, parietal (P3, P4) and occipital (O1, O2) nodes (nodes P3, P4, O1, O2): 4-8%
